Laboratory results reported in ChEMBL document CHEMBL1139381 (J Med Chem, 2009).

Tests used:
Plasmodium falciparum [1] = test: Antimalarial activity after 72 hrs against chloroquine-sensitive Plasmodium falciparum D10 infected human A+ erythrocytes in Makler LDH reporter assay; type: functional, organism-based; conditions: D10, 72 h
Plasmodium falciparum [2] = test: Antimalarial activity after 72 hrs against chloroquine-resistant Plasmodium falciparum W2 infected human A+ erythrocytes by Makler LDH reporter assay; type: functional, organism-based; conditions: W2, 72 h
Plasmodium falciparum [3] = test: Antimalarial activity after 24 hrs against chloroquine-sensitive Plasmodium falciparum 3D7 infected human A+ erythrocytes by [3H]hypoxanthine uptake; type: functional, organism-based
Plasmodium falciparum [4] = test: Antimalarial activity after 24 hrs against chloroquine-resistant synchronous Plasmodium falciparum K1 infected human A+ erythrocytes by [3H]hypoxanthine uptake; type: functional, organism-based
Plasmodium falciparum [5] = test: Antimalarial activity after 48 hrs against chloroquine-sensitive Plasmodium falciparum NF54 infected human A+ erythrocytes by [3H]hypoxanthine uptake; type: functional, organism-based
Plasmodium falciparum [6] = test: Antimalarial activity after 48 hrs against chloroquine-resistant asynchronous Plasmodium falciparum K1 infected human A+ erythrocytes by [3H]hypoxanthine uptake; type: functional, organism-based
[7] = Cytotoxicity against mouse NSO cells by MTT assay; type: cell-based; conditions: read-out: TC50 (the source's name)
[8] = Cytotoxicity against human Daudi cells by MTT assay; type: cell-based; conditions: read-out: TC50 (the source's name)
[9] = Cytotoxicity against PHA-stimulated human lymphocytes by MTT assay; type: cell-based, Lymphocyte; conditions: read-out: TC50 (the source's name)
Plasmodium chabaudi [10] = test: Antimalarial activity as reduced parasitaemia against Plasmodium chabaudi AS infected CD1 mice (Mus musculus) at 50 mg/kg/day peroral dose; type: functional; set-up: scale not given: the % may be the effect or the level left; conditions: route oral
Plasmodium berghei [11] = test: Antimalarial activity as reduced parasitaemia against Plasmodium berghei ANKA infected CD1 mice (Mus musculus) at 50 mg/kg/day peroral dose over 4 days; type: functional; set-up: scale not given: the % may be the effect or the level left; conditions: route oral
Plasmodium berghei [12] = test: Antimalarial activity as increased survival against Plasmodium berghei ANKA infected CD1 mice (Mus musculus) at 50 mg/kg/day peroral dose over 4 days; type: functional; conditions: route oral
[13] = biological target: T1, Histidine-rich protein PFHRP-II (Plasmodium falciparum) (UniProt P05227); test: Inhibition of beta-hematin assessed as molar equivalents at pH 2.7 after 18 hrs by spectrophotometric microassay relative to hemin; type: functional
T1 sequence (whole entry): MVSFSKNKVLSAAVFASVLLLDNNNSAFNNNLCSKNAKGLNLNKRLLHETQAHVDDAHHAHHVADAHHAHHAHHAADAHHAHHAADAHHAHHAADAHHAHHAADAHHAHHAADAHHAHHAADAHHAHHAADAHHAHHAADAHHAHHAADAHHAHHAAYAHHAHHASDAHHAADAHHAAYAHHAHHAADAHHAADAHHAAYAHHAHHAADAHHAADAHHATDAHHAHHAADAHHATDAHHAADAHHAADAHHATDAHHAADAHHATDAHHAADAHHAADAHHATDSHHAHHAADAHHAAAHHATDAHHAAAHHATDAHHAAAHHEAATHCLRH

[14] = Apparent volume of distribution in CD-COBS rat at 5 mg/kg, iv; type: ADME, organism-based; set-up: dose 5 mg/kg, route intravenous; conditions: in vivo
[15] = Elimination half life in CD-COBS rat at 5 mg/kg, iv; type: ADME, organism-based; set-up: dose 5 mg/kg, route intravenous; conditions: in vivo
[16] = Ratio of drug level in blood to plasma of CD-COBS rat at 5 mg/kg, iv; type: ADME, organism-based; set-up: dose 5 mg/kg, route intravenous; conditions: blood and plasma
Rattus norvegicus = test: AUC (0 to t) in CD-COBS rat at 50 mg/kg, po after 60 mins; type: ADME, organism-based, Plasma; set-up: time < 1 hr, dose 50 mg/kg, route oral; conditions: in vivo, 1 h
[17] = Cmax in CD-COBS rat at 50 mg/kg, po after 60 mins; type: ADME, organism-based; set-up: time < 1 hr, dose 50 mg/kg, route oral; conditions: in vivo, read-out: AUC
Mus musculus = test: AUC (0 to t) in CD1 albino mouse at 50 mg/kg, po after 60 mins; type: ADME, organism-based, Plasma; set-up: time < 1 hr, dose 50 mg/kg, route oral; conditions: in vivo, 1 h
[18] = Cmax in CD1 albino mouse at 50 mg/kg, po after 60 mins; type: ADME, organism-based; set-up: dose 50 mg/kg, route oral; conditions: in vivo
Liver [19] = test: AUC (0 to t) in CD1 albino mouse liver at 50 mg/kg, po after 180 mins; type: ADME, organism-based; set-up: time < 3 hr, dose 50 mg/kg, route oral; conditions: in vivo, 3 h
Liver [20] = test: AUC (0 to t) in CD-COBS rat liver at 50 mg/kg, po after 180 mins; type: ADME, organism-based; set-up: time < 3 hr, dose 50 mg/kg, route oral; conditions: in vivo, 3 h
[21] = Ratio of drug level in liver to plasma of CD-COBS rat at 50 mg/kg, po after 180 mins; type: ADME, organism-based; set-up: dose 50 mg/kg, route oral; conditions: liver and plasma
[22] = Ratio of drug level in liver to plasma of CD1 albino mouse at 50 mg/kg, po after 180 mins; type: ADME, organism-based; set-up: dose 50 mg/kg, route oral; conditions: liver and plasma
[23] = Liver concentration in CD-COBS rat at 50 mg/kg, po after 180 mins
[24] = Liver concentration in CD1 albino mouse at 50 mg/kg, po after 180 mins
Plasmodium berghei [25] = test: Antimalarial activity as reduced parasitaemia against Plasmodium berghei ANKA infected CD1 mice (Mus musculus) at 150 mg/kg/day oral dose over 4 days; set-up: scale not given: the % may be the effect or the level left
[26] = Cytotoxicity against human KB cells by MTT assay; type: cell-based; conditions: read-out: TC50 (the source's name)
Plasmodium berghei [27] = test: Antimalarial activity as reduced parasitaemia against Plasmodium berghei ANKA infected CD1 mice (Mus musculus) at 30 mg/kg/day intraperitoneal dose over 4 days; type: functional; set-up: scale not given: the % may be the effect or the level left
Plasmodium chabaudi [28] = test: Antimalarial activity as reduced parasitaemia against Plasmodium chabaudi AS infected CD1 mice (Mus musculus) at 10 mg/kg/day peroral dose over 4 days; type: functional; set-up: scale not given: the % may be the effect or the level left; conditions: route oral
Plasmodium berghei [29] = test: Antimalarial activity as increased survival against Plasmodium berghei ANKA infected CD1 mice (Mus musculus) at 10 mg/kg/day peroral dose over 4 days; type: functional; conditions: route oral

SMILES | IC50 (Plasmodium falciparum [1]) [nM] | IC50 (Plasmodium falciparum [2]) [nM] | IC50 (Plasmodium falciparum [3]) [nM] | IC50 (Plasmodium falciparum [4]) [nM] | IC50 (Plasmodium falciparum [5]) [nM] | IC50 (Plasmodium falciparum [6]) [nM] | Activity (Plasmodium chabaudi [10]) [%] | also measured
Clc1cccc(C(Nc2ccnc3cc(Cl)ccc23)c2ccc(CN3CCCC3)cc2)c1 (racemic) | 21 | 22 | 24 | 65 | 12 | 16 | 98 | CC50 [7]: 23800 nM; CC50 [8]: 34600 nM; CC50 [9]: 54100 nM; Activity (Plasmodium berghei [11]): 98%; Survival (Plasmodium berghei [12]): 18 days; Ratio [13]: 1.33; Vd [14]: 48 L/kg; half-life [15]: 3 h; blood plasma ratio [16]: 1.1; AUC (Rattus norvegicus): 422 ng·h/mL; Cmax [17]: 180 ng/mL; AUC (Mus musculus): 725 ng·h/mL; Cmax [18]: 330 ng/mL; AUC (Liver [19]): 7061 µg/g; AUC (Liver [20]): 2945 µg/g; Kp at 3 h [21]: > 100; Kp at 3 h [22]: > 100; concentration at 3 h [23]: 30500 ng/g; concentration at 3 h [24]: 52200 ng/g
FC(F)(F)c1ccc2c(NC(c3ccc(CN4CCOCC4)cc3)c3cccc(Cl)c3)ccnc2c1 (racemic) | 234 | 304 | – | – | – | – | – | –
COc1ccc2nccc(NC(c3ccc(Cl)cc3)c3ccc(CN4CCOCC4)cc3)c2c1 (racemic) | 67 | 65 | – | – | 33 | 54 | – | –
Clc1ccccc1C(c1ccccc1)(c1ccccc1)n1ccnc1 [CLOTRIMAZOLE] | – | – | – | – | – | – | 6 | Activity (Plasmodium berghei [25]): 28.3%
FC(F)(F)c1cc(NC(c2ccc(Cl)cc2)c2ccc(CN3CCCC3)cc2)c2cccc(C(F)(F)F)c2n1 (racemic) | 1240 | 1370 | 100 | 450 | – | – | – | CC50 [26]: 213000 nM
Clc1ccc([C@](c2ccccc2)(c2ccc(CN3CCCC3)cc2)n2ccnc2)cc1 | 130 | 59 | 7 | 5 | – | – | 94.8 | Activity (Plasmodium berghei [27]): 37.6%; Ratio [13]: 2.5
FC(F)(F)c1ccc2c(NC(c3ccc(Cl)cc3)c3ccc(CN4CCCC4)cc3)ccnc2c1 (racemic) | 61 | 90 | – | 30 | 33 | 20 | 99.6 | CC50 [7]: 12100 nM; CC50 [8]: 14100 nM; CC50 [9]: 24200 nM; CC50 [26]: 5500 nM
CCN(CC)CCCC(C)Nc1ccnc2cc(Cl)ccc12 (stereo not given) [CHLOROQUINE] | – | – | – | – | – | – | – | CC50 [7]: 14900 nM; CC50 [8]: 16700 nM; CC50 [9]: 18600 nM; Activity (Plasmodium chabaudi [28]): 99.9%; Survival (Plasmodium berghei [29]): 16.3 days
COc1ccc2nccc(NC(c3ccc(CN4CCOCC4)cc3)c3cccc(Cl)c3)c2c1 (racemic) | 86 | 127 | – | – | 43 | 67 | – | –
Clc1ccc(C(Nc2ccnc3cc(Cl)ccc23)(c2ccccc2)c2ccc(CN3CCCC3)cc2)cc1 (racemic) | 40 | 51 | 3 | 22 | – | – | 99.9 | –
COc1ccc2nccc(NC(c3ccc(CN4CCCC4)cc3)c3cccc(Cl)c3)c2c1 (racemic) | 40 | 55 | – | – | 39 | 65 | – | –
Clc1ccc(C(Nc2ccnc3cc(Cl)ccc23)c2ccc(CN3CCOCC3)cc2)cc1 (racemic) | 87 | 84 | – | – | 19 | 21 | – | –
Clc1cccc(C(Nc2ccnc3cc(Cl)ccc23)c2ccc(CN3CCOCC3)cc2)c1 (racemic) | 142 | 220 | – | – | 43 | 62 | – | –
COc1ccc2nc3cc(Cl)ccc3c(NC(c3ccc(Cl)cc3)(c3ccc(Cl)cc3)c3ccc(CN4CCCC4)cc3)c2c1 | 143 | 149 | – | – | 135 | 199 | – | –
Clc1ccc(C(Nc2ccnc3cc(Cl)ccc23)(c2ccc(Cl)cc2)c2ccc(CN3CCCC3)cc2)cc1 | 48 | 56 | – | – | 16 | 28 | – | –
Clc1ccc(C(Nc2ccnc3cc(Cl)ccc23)c2ccc(CN3CCCC3)cc2)cc1 (racemic) | 46 | 72 | 3.7 | 9 | 13 | 14 | 99.5 | CC50 [7]: 8600 nM; CC50 [8]: 8600 nM; CC50 [9]: 17300 nM; CC50 [26]: 19600 nM; Vd [14]: 40 L/kg; half-life [15]: 0.733 h
COc1ccc2nccc(NC(c3ccc(Cl)cc3)c3ccc(CN4CCCC4)cc3)c2c1 (racemic) | 57 | 82 | 8 | 60 | 32 | 32 | – | CC50 [26]: 8500 nM
COc1ccc2nc3cc(Cl)ccc3c(NC(c3ccc(Cl)cc3)c3ccc(CN4CCCC4)cc3)c2c1 (racemic) | 49 | 59 | 1 | 8 | 19 | 20 | 99.9 | CC50 [7]: 11100 nM; CC50 [8]: 11100 nM; CC50 [9]: 16600 nM
